≈ marks a conversion by molar mass, not a printed value.
Test system: N. gonorrhoeae clinical isolates
Experiment: MIC, agar dilution (CLSI)
Type: cell-based, Neisseria gonorrhoeae

CC1(C)S[C@@H]2[C@H](NC(=O)Cc3ccccc3)C(=O)N2[C@H]1C(=O)O [Pen, penicillin]
MIC50 (96 clinical isolates): 1 µg/mL (≈ 2.99 µM)
MIC90 (96 clinical isolates): 2 µg/mL (≈ 5.98 µM)
MIC range (96 clinical isolates): <0.008 to 4 µg/mL
MIC (strain CDC1 (GCREF2012 016)): 1 µg/mL (≈ 2.99 µM)
MIC (strain CDC2 (GCREF2012 045)): 1 µg/mL (≈ 2.99 µM)
MIC (strain CDC3 (GCREF2013 013)): 1 µg/mL (≈ 2.99 µM)
MIC (strain CDC4 (GCREF2013 030)): 1 µg/mL (≈ 2.99 µM)
MIC (strain CDC5 (GCREF2012 001)): 1 µg/mL (≈ 2.99 µM)
MIC (strain CDC6 (GCREF2012 002)): 1 µg/mL (≈ 2.99 µM)
MIC (strain CDC8 (GCREF2012 004)): 0.25 µg/mL (≈ 0.748 µM)
MIC (strain CDC9 (GCREF2012 005)): 1 µg/mL (≈ 2.99 µM)
MIC (strain CDC10 (GCREF2012 006)): 1 µg/mL (≈ 2.99 µM)
MIC (strain CDC11 (GCREF2012 007)): 1 µg/mL (≈ 2.99 µM)
MIC (strain CDC12 (GCREF2012 008)): 1 µg/mL (≈ 2.99 µM)
MIC (strain CDC13 (GCREF2012 009)): 1 µg/mL (≈ 2.99 µM)
MIC (strain CDC14 (GCREF2012 010)): 1 µg/mL (≈ 2.99 µM)
MIC (strain CDC15 (GCREF2012 011)): 0.125 µg/mL (≈ 0.374 µM)
MIC (strain CDC16 (GCREF2012 012)): 2 µg/mL (≈ 5.98 µM)
MIC (strain CDC18 (GCREF2012 014)): 1 µg/mL (≈ 2.99 µM)
MIC (strain CDC19 (GCREF2012 015)): 0.25 µg/mL (≈ 0.748 µM)
MIC (strain CDC20 (GCREF2012 017)): 0.125 µg/mL (≈ 0.374 µM)
MIC (strain CDC21 (GCREF2012 018)): 1 µg/mL (≈ 2.99 µM)
MIC (strain CDC22 (GCREF2012 019)): 0.25 µg/mL (≈ 0.748 µM)
MIC (strain CDC23 (GCREF2012 020)): 1 µg/mL (≈ 2.99 µM)
MIC (strain CDC24 (GCREF2012 021)): 1 µg/mL (≈ 2.99 µM)
MIC (strain CDC25 (GCREF2012 022)): 2 µg/mL (≈ 5.98 µM)
MIC (strain CDC26 (GCREF2012 023)): 0.25 µg/mL (≈ 0.748 µM)
MIC (strain CDC27 (GCREF2012 024)): 1 µg/mL (≈ 2.99 µM)
MIC (strain CDC28 (GCREF2012 025)): 1 µg/mL (≈ 2.99 µM)
MIC (strain CDC29 (GCREF2012 026)): 1 µg/mL (≈ 2.99 µM)
MIC (strain CDC30 (GCREF2012 027)): 1 µg/mL (≈ 2.99 µM)
MIC (strain CDC31 (GCREF2012 028)): 2 µg/mL (≈ 5.98 µM)
MIC (strain CDC32 (GCREF2012 029)): 1 µg/mL (≈ 2.99 µM)
MIC (strain CDC33 (GCREF2012 030)): 1 µg/mL (≈ 2.99 µM)
MIC (strain CDC34 (GCREF2012 031)): 1 µg/mL (≈ 2.99 µM)
MIC (strain CDC35 (GCREF2012 032)): 2 µg/mL (≈ 5.98 µM)
MIC (strain CDC36 (GCREF2012 033)): 0.25 µg/mL (≈ 0.748 µM)
MIC (strain CDC37 (GCREF2012 034)): 1 µg/mL (≈ 2.99 µM)
MIC (strain CDC38 (GCREF2012 035)): 1 µg/mL (≈ 2.99 µM)
MIC (strain CDC39 (GCREF2012 036)): 2 µg/mL (≈ 5.98 µM)
MIC (strain CDC40 (GCREF2012 037)): 1 µg/mL (≈ 2.99 µM)
MIC (strain CDC41 (GCREF2012 038)): 2 µg/mL (≈ 5.98 µM)
MIC (strain CDC42 (GCREF2012 039)): 2 µg/mL (≈ 5.98 µM)
MIC (strain CDC43 (GCREF2012 040)): 2 µg/mL (≈ 5.98 µM)
MIC (strain CDC45 (GCREF2012 042)): 2 µg/mL (≈ 5.98 µM)
MIC (strain CDC46 (GCREF2012 043)): 1 µg/mL (≈ 2.99 µM)
MIC (strain CDC47 (GCREF2012 044)): 1 µg/mL (≈ 2.99 µM)
MIC (strain CDC48 (GCREF2012 046)): 1 µg/mL (≈ 2.99 µM)
MIC (strain CDC49 (GCREF2012 047)): 2 µg/mL (≈ 5.98 µM)
MIC (strain CDC50 (GCREF2012 048)): 2 µg/mL (≈ 5.98 µM)
MIC (strain CDC51 (GCREF2012 049)): 2 µg/mL (≈ 5.98 µM)
MIC (strain CDC52 (GCREF2012 050)): 2 µg/mL (≈ 5.98 µM)
MIC (strain CDC53 (GCREF2012 051)): 2 µg/mL (≈ 5.98 µM)
MIC (strain CDC54 (GCREF2012 052)): 2 µg/mL (≈ 5.98 µM)
MIC (strain CDC55 (GCREF2013 001)): 1 µg/mL (≈ 2.99 µM)
MIC (strain CDC56 (GCREF2013 002)): 1 µg/mL (≈ 2.99 µM)
MIC (strain CDC57 (GCREF2013 003)): 1 µg/mL (≈ 2.99 µM)
MIC (strain CDC58 (GCREF2013 004)): 2 µg/mL (≈ 5.98 µM)
MIC (strain CDC59 (GCREF2013 044)): 2 µg/mL (≈ 5.98 µM)
MIC (strain CDC60 (GCREF2013 005)): 4 µg/mL (≈ 12 µM)
MIC (strain CDC61 (GCREF2013 006)): 4 µg/mL (≈ 12 µM)
MIC (strain CDC62 (GCREF2013 007)): 0.25 µg/mL (≈ 0.748 µM)
MIC (strain CDC64 (GCREF2013 009)): 0.5 µg/mL (≈ 1.5 µM)
MIC (strain CDC65 (GCREF2013 010)): 0.5 µg/mL (≈ 1.5 µM)
MIC (strain CDC66 (GCREF2013 011)): 0.25 µg/mL (≈ 0.748 µM)
MIC (strain CDC67 (GCREF2013 014)): 0.5 µg/mL (≈ 1.5 µM)
MIC (strain CDC68 (GCREF2013 016)): 1 µg/mL (≈ 2.99 µM)
MIC (strain CDC69 (GCREF2013 017)): 1 µg/mL (≈ 2.99 µM)
MIC (strain CDC70 (GCREF2013 018)): 2 µg/mL (≈ 5.98 µM)
MIC (strain CDC71 (GCREF2013 019)): 0.25 µg/mL (≈ 0.748 µM)
MIC (strain CDC72 (GCREF2013 020)): 2 µg/mL (≈ 5.98 µM)
MIC (strain CDC73 (GCREF2013 021)): 0.5 µg/mL (≈ 1.5 µM)
MIC (strain CDC74 (GCREF2013 022)): 0.25 µg/mL (≈ 0.748 µM)
MIC (strain CDC75 (GCREF2013 023)): 0.5 µg/mL (≈ 1.5 µM)
MIC (strain CDC76 (GCREF2013 024)): 0.5 µg/mL (≈ 1.5 µM)
MIC (strain CDC77 (GCREF2013 025)): 0.125 µg/mL (≈ 0.374 µM)
MIC (strain CDC78 (GCREF2013 026)): 0.5 µg/mL (≈ 1.5 µM)
MIC (strain CDC79 (GCREF2013 027)): 1 µg/mL (≈ 2.99 µM)
MIC (strain CDC80 (GCREF2013 028)): 2 µg/mL (≈ 5.98 µM)
MIC (strain CDC81 (GCREF2013 029)): 2 µg/mL (≈ 5.98 µM)
MIC (strain CDC82 (GCREF2013 031)): 1 µg/mL (≈ 2.99 µM)
MIC (strain CDC83 (GCREF2013 032)): 0.25 µg/mL (≈ 0.748 µM)
MIC (strain CDC84 (GCREF2013 033)): 0.25 µg/mL (≈ 0.748 µM)
MIC (strain CDC87 (GCREF2013 036)): 2 µg/mL (≈ 5.98 µM)
MIC (strain CDC88 (GCREF2013 037)): 2 µg/mL (≈ 5.98 µM)
MIC (strain CDC89 (GCREF2013 038)): 1 µg/mL (≈ 2.99 µM)
MIC (strain CDC90 (GCREF2013 039)): 2 µg/mL (≈ 5.98 µM)
MIC (strain CDC91 (GCREF2013 040)): 2 µg/mL (≈ 5.98 µM)
MIC (strain CDC92 (GCREF2013 041)): 2 µg/mL (≈ 5.98 µM)
MIC (strain CDC93 (GCREF2013 042)): 1 µg/mL (≈ 2.99 µM)
MIC (strain CDC94 (GCREF2013 043)): 0.25 µg/mL (≈ 0.748 µM)
MIC (strain CDC95 (GCREF2013 045)): 2 µg/mL (≈ 5.98 µM)
MIC (strain CDC96 (GCREF2013 046)): 1 µg/mL (≈ 2.99 µM)
MIC (strain CDC97 (GCREF2013 047)): 1 µg/mL (≈ 2.99 µM)
MIC (strain CDC98 (GCREF2013 048)): 0.25 µg/mL (≈ 0.748 µM)
MIC (strain CDC99 (GCREF2013 012)): 0.25 µg/mL (≈ 0.748 µM)
MIC (strain CDC100 (GCREF2013 015)): 1 µg/mL (≈ 2.99 µM)

Source: paper PMC9487510, “A Novel Oral GyrB/ParE Dual Binding Inhibitor Effective against Multidrug-Resistant Neisseria gonorrhoeae and Other High-Threat Pathogens” (Antimicrobial Agents and Chemotherapy, 2022)
